Experimental data: US9393213B2, “Nanocrystals, compositions, and methods that aid particle transport in mucus” (Kala Pharmaceuticals, Inc., priority 2012, dated 2016)

Assays:
[1] = type: physicochemical
Excerpt: Tenofovir (TFV) is a potent antiviral drug used to treat infectious diseases. Due to the fact that tenofovir (TFV) is highly water soluble, a method was developed for formulating mucus-penetrating particles of tenofovir. […] In order to decrease the water solubility of TFV, interactions between cations and nucleotides/nucleotide analogs were exploited. TFV interacts very strongly with zinc cations (Zn), via the phosphonate group and the purine ring structure. This interaction with zinc causes TFV precipitation into crystals that can be stabilized with the coatings described herein, halting aggregation and determining the crystal surface properties. Additionally, Zn is naturally present in vaginal fluid and has known antimicrobial properties recently extended to include anti-HIV activity.

[2] = Acute vaginal toxicity by H&E staining 24 h after intravaginal administration; type: in vivo, DP mice
Description: Standard hematoxylin and eosin (H&E) staining was used to investigate potential toxic effects of intravaginally administered nanoparticles. […] The same (BD-) MPPs and (BD-) CPs that were used for distribution and retention studies were tested for toxicity.
Five μL of particles or control solutions were administered intravaginally to the DP mouse model. After 24 h, whole cervicovaginal tracts were obtained and fixed in 4% paraformaldehyde solution for 24 h. Tissues were placed in 70% ethanol and taken to the Johns Hopkins Reference Histology Laboratory for paraffin embedding and standard H&E staining.

[3] = test system: IL-1β, IL-1α, TNF-α, and IL-6; assay: Cytokine concentrations in cervicovaginal lavage after daily vaginal treatment for 7 days; settings: day 8 after daily dosing for seven days
Description: Because our ultimate goal was to test MPPs for protection against HSV-2, we compared an MPP formulation containing acyclovir monophosphate (ACVp) to N9, HEC placebo gel, PBS, and a gel vehicle (TFV vehicle) used in recent tenofovir clinical trials. Nanoparticle and control formulations were administered vaginally to Depo Provera-treated mice daily for seven days.
Twenty μL of each test agent was administered intravaginally to the DP mouse model once-a-day for seven (7) days. […] On the eighth day, each mouse was lavaged twice with 50 μL of PBS. Each lavage sample was diluted with an additional 200 μL of PBS and centrifuged to remove the mucus plug. Supernatant (200 μL) was removed and split into 50 μL for each of the four (IL-1β, IL-1α, TNF-α, and IL-6) Quantikine ELISA kits (R&D Systems, Inc.). ELISAs were conducted per the manufacturer's instructions.

HSV-2 strain G = assay: HSV-2 vaginal challenge in mice; type: in vivo, CF-1 mice; settings: intravaginal 30 min before challenge
Description: Female 6-8 week old CF-1 mice were subcutaneously injected with medroxyprogesterone acetate, and one week later received 20 μl of test agent or PBS intravaginally with a fire-polished positive displacement capillary pipette (Wiretrol, Drummond Scientific). Thirty minutes later, mice were challenged with 10 uL of inoculum containing HSV-2 strain G (ATCC #VR-734, 2.8×10^7 TCID50 per mL). […] Mice were assessed for infection three days later after inoculation by culturing a PBS vaginal lavage on human foreskin fibroblasts (Diagnostic Hybrids, MRHF Lot #440318W), as described previously (R. A. Cone, T. Hoen, X. Wong, R. Abusuwwa, D. J. Anderson, T. R. Moench, Vaginal microbicides: detecting toxicities in vivo that paradoxically increase pathogen transmission. BMC Infect Dis 6, 90 (2006)).
Both the drug and the virus were administered intravaginally.
ACVp nanoparticles were formulated with the same muco-inert coating used for all other studies. […] To study the distribution and retention of nanoparticles at the vaginal mucosal surface and the effects of repeated dosing, 6-8 week old CF-1 mice (Harlan) were used. Mice were housed in a reversed light cycle facility (12 h light/12 h dark). […] Journal of Virology 79, 3107-3116 (2005)).
All data are presented as a mean with standard error of the mean (SEM) indicated. Statistical significance was determined by a two-tailed, Student's t-test (α=0.05) assuming unequal variance. In the case of HSV-2 challenge, statistical significance was determined using Fisher's exact test, two-tailed distribution.

HSV-2 = settings: single vaginal pretreatment with 50 mg/mL (5%); guinea pigs; cited from earlier work
[4] = Excerpt: [formula] where <Vmean> is the ensemble average trajectory-mean velocity, Vmean is the velocity of an individual particle averaged over its trajectory, the sample is the particle of interest, the negative control is a 200 nm carboxylated polystyrene particle, and the positive control is a 200 nm polystyrene particle densely PEGylated with 2 kDa-5 kDa PEG.
For instance, a fluorescent microscope equipped with a CCD camera can be used to capture 15 s movies at a temporal resolution of 66.7 ms (15 frames/s) under 100× magnification from several areas within each sample for each type of particles: sample, negative control, and positive control.
In a typical experiment, ≦0.5 uL of a nanosuspension (diluted if necessary to the surfactant concentration of ˜1%) was added to 20 μl of fresh CVM along with controls. […] Using a fluorescent microscope equipped with a CCD camera, 15 s movies were captured at a temporal resolution of 66.7 ms (15 frames/s) under 100× magnification from several areas within each sample for each type of particles: sample (pyrene), negative control, and positive control (natural blue fluorescence of pyrene allowed observing of pyrene nanoparticles separately from the controls). […] To enable easy comparison between different samples and normalize velocity data with respect to natural variability in penetrability of CVM samples, relative sample velocity <Vmean>rel, was determined according to the formula shown in Equation 1.
CVM was collected by inserting a Softcup® menstrual collection cup into the vaginal tract as described by the product literature for between 30 seconds and 2 minutes. After removal the CVM was then collected from the Softcup® by gentle centrifugation at ˜30×G to ˜120×G in a 50 mL centrifuge tube. In Example 1, CVM was used undiluted and fresh (stored for no longer than 7 days under refrigerated conditions). Barrier and transport of all CVM samples used in Example 1 were verified with negative (200 nm carboxylated polystyrene particles) and positive (200 nm polystyrene particles modified with PEG 5K) controls. In Example 2, CVM was lyophilized and reconstituted. In Example 2, mucus was frozen at −50° C. and then lyophilized to dryness. Samples were then stored at −50° C. Before use, the mucus was reconstituted by grinding the solid into a fine powder using a mortar and pestle followed by water addition to a final volume equal to the original volume to 2 times the original volume. The reconstituted mucus was then incubated at 4° C. for 12 hours and used as described in Example 2. Barrier and transport of all CVM samples used in Example 2 were verified with negative (200 nm carboxylated polystyrene particles) and positive (F127 coated 200 nm polystyrene particles) controls.

In the case of `C[C@H](Cn1cnc2c(N)ncnc21)OCP(=O)(O)O` [TFV, tenofovir], the water solubility [1] is reported as “at least 15 mg/mL”.

In the case of Nonoxynol-9 [N9], the “inflammation in H&E-stained vaginal tissue” value [2] is reported as “acute inflammation”, the “IL-1α level in vaginal lavage” value [3] is reported as “elevated” and the “IL-1β level in vaginal lavage” value [3] is reported as “elevated”.

For acyclovir monophosphate [Soluble ACV], the “% Infected” value (HSV-2 strain G; 1 mg/mL in PBS) was 84.0%, the “# Infected” value (HSV-2 strain G; 1 mg/mL in PBS, 25 mice) was 21 and the “% Infected” value (HSV-2 strain G; 1 mg/mL in PBS, listed as Soluble ACVp) was 84%. The “% Infected” value (HSV-2 strain G; 1 mg/mL in PBS, listed as soluble ACVp) was 84.0%, the “% Infected” value (HSV-2 strain G; 10 mg/mL in PBS) was 62.0% and the “# Infected” value (HSV-2 strain G; 10 mg/mL in PBS, 100 mice) was 62. For the same compound, the “% Infected” value (HSV-2 strain G; 10 mg/mL in PBS, listed as Soluble ACVp) was 62%, the “% Infected” value (HSV-2 strain G; 10 mg/mL in PBS, listed as soluble ACVp) was 62.0% and the “% Infected” value (HSV-2 strain G; 10 mg/mL in Water) was 69.3%. The “# Infected” value (HSV-2 strain G; 10 mg/mL in Water, 75 mice) was 52 and the “animals infected compared to controls” value (HSV-2) was 70%.

In the case of Tyloxapol, the “Sample (relative) <Vmean>rel” value [4] is reported as −0.02 and the “Sample <Vmean>” value [4] is reported as 0.42 um/s.

In the case of Tween 80, the “Sample (relative) <Vmean>rel” value [4] is reported as 0.17 and the “Sample <Vmean>” value [4] is reported as 0.94 um/s.
